Here are results for 3 molecules from US20130095189A1, “COMPOSITION AND METHOD OF PHYTONUTRIENTS FOR METABOLIC PROGRAMMING EFFECTS” (priority 2011, published 2013).

Entries after “also recorded” stand apart in the source; their conditions may differ.

Common to all, as to type: cell-based, human
One experiment concerns NQO1. Briefly: NQO1 protein expression by immunoblotting in skin fibroblast cell models. To be noted: 24 h. How it is done: (§1) Treated and control cells are washed twice with ice cold phosphate buffered saline (PBS) and then incubated for 30 min in the Nonidet P-40 (NP-40) buffer (20 mM Tris-HCl, pH 8, 150 mM NaCl, 10% glycerol, 1% NP-40) containing one tablet of complete mini-EDTA-free protease inhibitor cocktail (Roche) in 10 ml buffer. Cells are harvested by scraping and the homogenate is centrifuged at 13,684 g at 4° C. for 15 min. The supernatants are collected and frozen at −80° C. The protein concentrations are determined using Bradford reagent (Sigma) according to the manufacturer's instructions. 20 μg of protein lysate is resolved by 10% SDS-polyacrylamide gel and transferred onto polyvinylidenedifluoride membranes (Bio-Rad) with a semidry transfer cell (Trans-Blot; Bio-Rad). Membranes are blocked for 1 hour at room temperature or overnight at 4° C. with Marvel fat-free milk powder (5% w/v), Tween 20 (0.05%, v/v) in PBS. Proteins of interest are visualized by exposing membranes to primary antibodies in milk for 2 hours at room temperature. Dilutions of antibodies are rabbit polyclonal GSTA1, 1:2000, goat polyclonal NQO1 1:1000 and goat polyclonal UGT1A 1:1000. Following primary antibody incubation membranes are incubated with suitable HRP-conjugated secondary antibody and signals are detected using an enhanced chemiluminescence kit (GE Healthcare) according to manufacturer's instructions. β-actin level is determined as loading control and bands are visualized using Fujifilm LAS3000 Imager.

For a further experiment, the system named is GST (GSTA1). Briefly: GST protein expression by immunoblotting in skin fibroblast cell models. The settings on record: 24 h. How it is done:
as §1

A further experiment relates to UGT mRNA. In words: UGT mRNA expression by TaqMan real-time PCR in skin fibroblast cell models. The text has this: (§2) Total cellular RNA is isolated using Genelute Mammalian Total RNA Kit (Sigma-Aldrich) according to the manufacturer's instructions. […] Standard curves are constructed with serial dilutions of control sample and analyzed using ABI software. Data are normalized against a house keeping gene, 18S ribosomal RNA. Gene expression is quantified by ^ΔΔCt method where fold of induction=2^-ΔΔ[…]., Analysis of relative gene expression data using real-time quantitative PCR and the 2(-Delta Delta C(T)) Method. Methods 2001. 25, 402-408).

For another experiment, the system named is GST mRNA. Briefly: GST mRNA expression by TaqMan real-time PCR in skin fibroblast cell models.
Description: as §2

The test system of the next experiment is NQO1 mRNA. In words: NQO1 mRNA expression by TaqMan real-time PCR in skin fibroblast cell models.
Description: as §2

For the next experiment, the system named is UGT (UGT1A). In words: UGT protein expression by immunoblotting in skin fibroblast cell models. To be noted: 24 h. How it is done:
as §1

[1] abbreviates: adult cell model, highest concentration (20 μM), control=1.
Where [2] appears, read: cell model, all concentrations tested.
Setting [3] is: 1 month old cell model, 5, 10, 20 μM.
Where [4] appears, read: 1 month old cell model, control=1.

As for `O=c1c(O)c(-c2ccc(O)c(O)c2)oc2cc(O)cc(O)c12` [quercetin], the “NQO1 protein expression (immunoblot, ratio to beta-actin)” value with NQO1 (adult cell model, higher dose) is reported as “significant upregulation”. In the experiment on GST (GSTA1) (adult cell model, 5, 10, 20 μM), the “GST protein expression (immunoblot, ratio to beta-actin)” value is recorded as “increases”. Further, the “UGT mRNA expression relative to control” value is “significant dose-dependent increase” with UGT mRNA (adult cell model, 5, 10, 20 μM) and “do not demonstrate any significant changes” in the experiment with UGT mRNA (setting [2]). Moreover, in the experiment on UGT mRNA (setting [1]), the “upregulation of UGT mRNA” value is 5.5 fold. The “GST mRNA expression relative to control” value in the experiment on GST mRNA (setting [3]) is listed as “significantly increased”; in the experiment with GST mRNA (adult cell model, 5, 10, 20 μM), “significant dose-dependent increase”; in the experiment with GST mRNA (setting [2]) it was “do not demonstrate any significant changes”. Further, in the experiment on GST mRNA (setting [4]), the “upregulation of GST mRNA compared to control” value is given as 3.9 fold. For the same molecule, in the experiment with GST mRNA (setting [1]), the “upregulation of GST mRNA” value is recorded as 7.4 fold. The “NQO1 mRNA expression relative to control” value in the experiment with NQO1 mRNA (setting [3]) is listed as “significantly increased”; in the experiment with NQO1 mRNA (setting [2]), “do not demonstrate any significant changes”. For the same molecule, in the experiment on NQO1 mRNA (setting [4]), the “upregulation of NQO1 mRNA compared to control” value is listed as 7.2 fold.
Consider `C[S+]([O-])CCCCN=C=S` (stereo not drawn) [sulforaphane, 4-methylsulfinylbutyl isothiocyanate], for which the “NQO1 protein expression (immunoblot, ratio to beta-actin)” value in the experiment with NQO1 (adult cell model, 5, 10, 20 μM) is reported as “significant upregulation”; in the experiment with NQO1 (cell model, higher doses), “significantly upregulated”. Further, the “GST protein expression (immunoblot, ratio to beta-actin)” value in the experiment on GST (GSTA1) (cell model, higher doses) is on record as “significantly upregulated”. In addition, in the experiment on UGT mRNA (adult cell model, 5, 10, 20 μM), the “UGT mRNA expression relative to control” value was “significant increase”. The “UGT protein expression (immunoblot, ratio to beta-actin)” value with UGT (UGT1A) (setting [3]) was “significant induction”; with UGT (UGT1A) (adult cell model, 5, 10, 20 μM) it was “affected”; in the experiment with UGT (UGT1A) (cell model, higher doses), “significantly upregulated”. Further, the “GST mRNA expression relative to control” value in the experiment with GST mRNA (adult cell model, 5, 10, 20 μM) is reported as “significant increase”; in the experiment on GST mRNA (infant cell models) it was “significantly increased; also recorded: significant increases”. Further, the “NQO1 mRNA expression relative to control” value in the experiment on NQO1 mRNA (adult cell model, 5, 10, 20 μM) is given as “significant increase”; in the experiment with NQO1 mRNA (infant cell models), “significant increases”. Also, the “increase in NQO1 mRNA compared to control” value in the experiment on NQO1 mRNA (infant cell models, control=1) was 6-35 fold.
Turning to catechin, the “NQO1 protein expression (immunoblot, ratio to beta-actin)” value with NQO1 (adult cell model, higher dose) is listed as “significant upregulation”; in the experiment with NQO1 (cell model, higher doses), “significantly upregulated”. Moreover, the “GST protein expression (immunoblot, ratio to beta-actin)” value with GST (GSTA1) (adult cell model, 5, 10, 20 μM) was “increases”; in the experiment on GST (GSTA1) (cell model, higher doses) it was “significantly upregulated”. Also, the “UGT mRNA expression relative to control” value in the experiment on UGT mRNA (setting [3]) is reported as “unaffected”; in the experiment on UGT mRNA (adult cell model, 5, 10, 20 μM) it was “an increase”. For the same molecule, the “UGT protein expression (immunoblot, ratio to beta-actin)” value in the experiment on UGT (UGT1A) (cell model, higher doses) is reported as “significantly upregulated”. The “upregulation of GST mRNA compared to control” value with GST mRNA (setting [4]) is 3.7 fold. For the same molecule, the “GST mRNA expression relative to control” value in the experiment with GST mRNA (adult cell model, 5, 10, 20 μM) is “dose-response upregulation”; in the experiment on GST mRNA (infant cell models) it was “significant increases”. For the same molecule, the “NQO1 mRNA expression relative to control” value with NQO1 mRNA (setting [3]) is “unaffected”; in the experiment on NQO1 mRNA (adult cell model, 5, 10, 20 μM), “dose-response upregulation”; in the experiment on NQO1 mRNA (infant cell models), “significant increases”. The “increase in NQO1 mRNA expression” value in the experiment on NQO1 mRNA (cell model, control=1) came to 4.5 fold.
